Assay results as given in patent US10206394B2, “Herbicidal compounds” (Syngenta Participations AG, priority 2014, dated 2019).
Read-outs that look alike come from different tables or passages of the source.

Key:
Test in all cases: Glasshouse assay for herbicidal activity (pre- and post-emergence), percentage phytotoxicity
Type in all cases: in vivo
[1] = tested on: Echinochloa crus-galli (ECHCG); details: Echinochloa crus-galli
How it was run: (§1)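 Sow seed in standard soil in pots; apply test herbicide after 1 day (PRE) or about 12 days (POST). Grow on in the glasshouse, watering twice daily, cool-season species at 20/16 °C and warm-season at 24/18 °C. Score visible damage (0–100%) at 20 or 15 DAA respectively.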

[2] = tested on: Alopecurus myosuroides (ALOMY); details: Alopecurus myosuroides
How it was run: as §1

Avena fatua (AVEFA) = details: Avena fatua
How it was run: as §1

Lolium perenne (LOLPE) = details: Lolium perenne
How it was run: as §1

[3] = post-emergence, 360 h, 250 g/ha, post-emergence, 15 DAA, visual assessment (100%=total damage, 0%=no damage), read-out: Post-emergence herbicidal activity (percentage phytotoxicity) ECHCG POST
[4] = pre-emergence, 480 h, 250 g/ha, pre-emergence, 20 DAA, visual assessment (100%=total damage, 0%=no damage), read-out: Pre-emergence herbicidal activity (percentage phytotoxicity) ECHCG PRE
[5] = post-emergence, 360 h, 250 g/ha, post-emergence, 15 DAA, visual assessment (100%=total damage, 0%=no damage), read-out: Post-emergence herbicidal activity (percentage phytotoxicity) ALOMY POST
[6] = pre-emergence, 480 h, 250 g/ha, pre-emergence, 20 DAA, visual assessment (100%=total damage, 0%=no damage), read-out: Pre-emergence herbicidal activity (percentage phytotoxicity) ALOMY PRE
[7] = post-emergence, 360 h, 250 g/ha, post-emergence, 15 DAA, visual assessment (100%=total damage, 0%=no damage), read-out: Post-emergence herbicidal activity (percentage phytotoxicity) AVEFA POST
[8] = pre-emergence, 480 h, 250 g/ha, pre-emergence, 20 DAA, visual assessment (100%=total damage, 0%=no damage), read-out: Pre-emergence herbicidal activity (percentage phytotoxicity) AVEFA PRE
[9] = post-emergence, 360 h, 250 g/ha, post-emergence, 15 DAA, visual assessment (100%=total damage, 0%=no damage), read-out: Post-emergence herbicidal activity (percentage phytotoxicity) LOLPE POST
[10] = pre-emergence, 480 h, 250 g/ha, pre-emergence, 20 DAA, visual assessment (100%=total damage, 0%=no damage), read-out: Pre-emergence herbicidal activity (percentage phytotoxicity) LOLPE PRE
[11] = post-emergence, 360 h, POST-emergence, rate 250 g/ha, visual score 15 DAA (100%=total damage, 0%=no damage), read-out: Post-emergence herbicidal activity (percentage phytotoxicity) ECHCG POST
[12] = pre-emergence, 480 h, PRE-emergence, rate 250 g/ha, visual score 20 DAA (100%=total damage, 0%=no damage), read-out: Pre-emergence herbicidal activity (percentage phytotoxicity) ECHCG PRE
[13] = post-emergence, 360 h, POST-emergence, rate 250 g/ha, visual score 15 DAA (100%=total damage, 0%=no damage), read-out: Post-emergence herbicidal activity (percentage phytotoxicity) ALOMY POST
[14] = pre-emergence, 480 h, PRE-emergence, rate 250 g/ha, visual score 20 DAA (100%=total damage, 0%=no damage), read-out: Pre-emergence herbicidal activity (percentage phytotoxicity) ALOMY PRE
[15] = post-emergence, 360 h, POST-emergence, rate 250 g/ha, visual score 15 DAA (100%=total damage, 0%=no damage), read-out: Post-emergence herbicidal activity (percentage phytotoxicity) AVEFA POST
[16] = pre-emergence, 480 h, PRE-emergence, rate 250 g/ha, visual score 20 DAA (100%=total damage, 0%=no damage), read-out: Pre-emergence herbicidal activity (percentage phytotoxicity) AVEFA PRE
[17] = post-emergence, 360 h, POST-emergence, rate 250 g/ha, visual score 15 DAA (100%=total damage, 0%=no damage), read-out: Post-emergence herbicidal activity (percentage phytotoxicity) LOLPE POST
[18] = pre-emergence, 480 h, PRE-emergence, rate 250 g/ha, visual score 20 DAA (100%=total damage, 0%=no damage), read-out: Pre-emergence herbicidal activity (percentage phytotoxicity) LOLPE PRE

Row | Compound | pest or weed control at 250 g/ha [1, 3] | pest or weed control at 250 g/ha [1, 4] | pest or weed control at 250 g/ha [2, 5] | pest or weed control at 250 g/ha [2, 6] | pest or weed control at 250 g/ha (Avena fatua (AVEFA); [7]) | pest or weed control at 250 g/ha (Avena fatua (AVEFA); [8]) | pest or weed control at 250 g/ha (Lolium perenne (LOLPE); [9]) | pest or weed control at 250 g/ha (Lolium perenne (LOLPE); [10]) | pest or weed control at 250 g/ha [1, 11] | pest or weed control at 250 g/ha [1, 12] | pest or weed control at 250 g/ha [2, 13] | pest or weed control at 250 g/ha [2, 14] | pest or weed control at 250 g/ha (Avena fatua (AVEFA); [15]) | pest or weed control at 250 g/ha (Avena fatua (AVEFA); [16]) | pest or weed control at 250 g/ha (Lolium perenne (LOLPE); [17]) | pest or weed control at 250 g/ha (Lolium perenne (LOLPE); [18])
1 | C/C=C/CNC(=O)CC1CC(=O)C(c2c(C)cc(-c3ncc(Cl)cc3F)cc2C)C1=O (stereo not drawn) [Compound B161] | 100% | 90% | 100% | 90% | 100% | 80% | 100% | 100% |  |  |  |  |  |  |  | 
2 | Cc1cc(-c2ncc(Cl)cc2F)cc(C)c1C1C(=O)CC(CC(=O)NC/C=C/Cl)C1=O (stereo not drawn) [Compound B162] | 100% | 100% | 100% | 100% | 100% | 90% | 100% | 100% |  |  |  |  |  |  |  | 
3 | CC(C)=CCNC(=O)CC1CC(=O)C(c2c(C)cc(C)cc2C)C1=O (stereo not drawn) [Compound B163] | 90% | 90% | 80% | 90% | 80% | 50% | 80% | 100% |  |  |  |  |  |  |  | 
4 | CCc1cc(OCC(F)(F)F)cc(C)c1C1C(=O)CC(CC(=O)N2CCOCC2)C1=O (stereo not drawn) [Compound B164] | 100% | 100% | 100% | 100% | 90% | 100% | 100% | 100% |  |  |  |  |  |  |  | 
5 | CCc1cc(OCC(F)(F)F)cc(C)c1C1C(=O)CC(CC(=O)NC(C)(C)C)C1=O (stereo not drawn) [Compound B165] |  |  |  |  |  |  |  |  | 100% | 100% | 100% | 100% | 100% | 100% | 100% | 100%
6 | C#CCNC(=O)CC1CC(=O)C(c2c(C)cc(OCC(F)(F)F)cc2CC)C1=O (stereo not drawn) [Compound B166] |  |  |  |  |  |  |  |  | 100% | 100% | 100% | 100% | 100% | 100% | 100% | 100%
7 | CCc1cc(OCC(F)(F)F)cc(C)c1C1C(=O)CC(CC(N)=O)C1=O (stereo not drawn) [Compound B167] |  |  |  |  |  |  |  |  | 100% | 100% | 100% | 100% | 100% | 90% | 90% | 100%
8 | CC#Cc1cc(C)c(C2C(=O)CC(CC(N)=O)C2=O)c(C)c1 (stereo not drawn) [Compound B168] |  |  |  |  |  |  |  |  | 100% | 100% | 100% | 100% | 100% | 100% | 100% | 100%
9 | CCc1cc(C)cc(C)c1C1C(=O)CC(CC(=O)N2CCOCC2)C1=O (stereo not drawn) [Compound B169] |  |  |  |  |  |  |  |  | 100% | 100% | 100% | 100% | 100% | 100% | 100% | 100%
